# Reference: patent US12263171B2, “7-, 8-, and 10-substituted amino triazolo quinazoline derivatives as adenosine receptor antagonists, pharmaceutical compositions and their use” (Merck Sharp & Dohme LLC, priority 2018, dated 2025)
# Legend:
# [1] = target: human A2b adenosine receptor (Homo sapiens (Human), UniProt P29275); experiment: A2b radioligand filtration binding assay (tritiated proprietary A2b antagonist, HEK293 membranes); details: for IC50: unstarred values: radioligand binding
# Procedure: Measurement of A2b Binding Affinity
# The reported affinity of the compounds of the invention for the human A2b adenosine receptor was determined experimentally using a radioligand filtration binding assay. This assay measures the amount of binding of a tritiated proprietary A2b receptor antagonist, in the presence and absence of a compound of the invention, to membranes made from HEK293 cells recombinantly expressing the human A2b adenosine receptor (Perkin Elmer, Cat. No. ES-013-C).
# The filter plate was incubated for at least 1 hour at 55° C. and allowed to dry. The bottom of the filter plate was then sealed with backing tape. […] The plates were then incubated for at least 20 minutes, and then the amount of radioactivity remaining in each well was determined using a TopCount® (Perkin Elmer) scintillation counter. After normalization to total and non-specific binding, the percent effect at each compound concentration was calculated. The plot of percent effect versus the log of compound concentration was analyzed electronically using a 4-parameter logistic fit based on the Levenberg-Marquardt algorithm to generate IC50 values.
# [2] = target: human A2a adenosine receptor (Homo sapiens (Human), UniProt P29274); experiment: A2a receptor affinity radioligand binding assay ([3H] SCH58261, membranes from HEK293 or CHO cells); details: for IC50: unstarred values: radioligand binding
# Chain of human A2a adenosine receptor (P29274 whole entry): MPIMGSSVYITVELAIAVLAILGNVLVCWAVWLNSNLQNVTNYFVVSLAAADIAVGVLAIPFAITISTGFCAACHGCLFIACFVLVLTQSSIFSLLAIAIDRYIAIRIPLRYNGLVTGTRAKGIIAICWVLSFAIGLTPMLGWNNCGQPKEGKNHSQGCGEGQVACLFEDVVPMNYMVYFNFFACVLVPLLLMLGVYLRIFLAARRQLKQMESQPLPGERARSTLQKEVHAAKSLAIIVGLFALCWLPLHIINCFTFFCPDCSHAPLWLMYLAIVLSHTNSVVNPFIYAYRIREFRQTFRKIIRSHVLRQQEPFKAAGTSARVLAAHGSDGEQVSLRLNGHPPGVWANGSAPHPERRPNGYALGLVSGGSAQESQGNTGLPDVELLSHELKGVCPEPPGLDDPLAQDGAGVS
# Procedure: The A2a receptor affinity binding assay measured the amount of binding of a tritiated ligand with high affinity for the A2a adenosine receptor to membranes made from HEK293 or CHO cells recombinantly expressing the human A2a adenosine receptor, in the presence of varying concentrations of a compound of the invention.
# Measurement of A2a Binding Affinity Using Radioligand Binding
# 148 μL, (5 μg/mL) membranes (Perkin Elmer, Cat. No. RBHA2aM4001A) and 2 μL compounds of the invention to be tested (test compound) were transferred to individual wells of a 96-well polypropylene assay plate and incubated for 15 to 30 minutes at room temperature. [^3H] SCH58261 ((7-(2-phenylethyl)-5-amino-2-(2-furyl)-pyrazolo-[4,3-e]-1,2,4-triazolo[1,5-c]pyrimidine)) was diluted in assay buffer (50 mM Tris pH 7.4, 10 mM MgCl2, 0.005% Tween20) to a concentration of 4 nM and 50 μL transferred to each well of the assay plate. […] The assay plate was incubated at room temperature for 60 minutes with agitation. […] Filtering was achieved by aspirating the contents of the assay plate for 5 seconds, then washing and aspirating the contents three times with ice-cooled wash buffer (50 mM Tris-HCl pH 7.4, 150 mM NaCl) and allowing the vacuum manifold to dry the plate for 30 seconds. The filter plate was incubated for at least 1 hour at 55° C. and allowed to dry. The bottom of the filter plate was sealed with backing tape. 40 μL. […] The plate was incubated for at least 20 minutes, and then the amount of radioactivity remaining in each well was determined using a TopCown® (Perkin Elmer) scintillation counter. After normalization to total and non-specific binding, the percent effect at each compound concentration was calculated. The plot of percent effect versus the log of compound concentration was analyzed electronically using a 4-parameter logistic fit based on the Levenberg-Marquardt algorithm to generate IC50 values.
# Chain of human A2b adenosine receptor (P29275 whole entry): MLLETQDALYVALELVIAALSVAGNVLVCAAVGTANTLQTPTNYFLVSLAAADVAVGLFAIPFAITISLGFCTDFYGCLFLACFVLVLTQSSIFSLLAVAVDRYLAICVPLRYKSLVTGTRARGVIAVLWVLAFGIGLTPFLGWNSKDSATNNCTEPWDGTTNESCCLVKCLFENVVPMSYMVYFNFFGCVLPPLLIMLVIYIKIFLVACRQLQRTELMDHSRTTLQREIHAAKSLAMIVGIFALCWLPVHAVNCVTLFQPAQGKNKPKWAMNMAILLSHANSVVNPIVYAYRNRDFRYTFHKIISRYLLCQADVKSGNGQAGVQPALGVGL
IC50 [1] [nM],IC50 [2] [nM],"A2B binding % inh. @ 10000 nM ([1]; @ 10000 nM, unstarred) [% inh. @ 10000 nM]","A2A binding % inh. @ 10000 nM ([2]; @ 10000 nM, unstarred) [% inh. @ 10000 nM]",Structure (SMILES)
7020,5.8,,,COc1cccc2c1nc(N)n1nc([C@H]3CCC4CCC3N4c3cnn(C)c3)nc21 (mixture of isomers) [Example 130A]
3520,10.3,,,COc1cccc2c1nc(N)n1nc([C@@H]3CCC4CCC3N4c3cnn(C)c3)nc21 (mixture of isomers) [Example 130B]
70.5,0.4,,,"COc1cccc2c1nc(N)n1nc([C@@H]3CCCN(c4cnn(C5CCOC5)c4)C3)nc21 (single isomer, unassigned) [Example 57A]"
89.3,0.3,,,"COc1cccc2c1nc(N)n1nc([C@@H]3CCCN(c4cnn(C5CCOC5)c4)C3)nc21 (single isomer, unassigned) [Example 57B]"
34.9,0.2,,,"COc1cccc2c1nc(N)n1nc([C@@H]3CCCN(c4cnn(C5CCCC5O)c4)C3)nc21 (single isomer, unassigned) [Example 58B]"
6.3,0.4,,,"COc1cccc2c1nc(N)n1nc([C@@H]3CCCN(c4cnn(C5CCCC5(C)O)c4)C3)nc21 (single isomer, unassigned) [Example 59A]"
1.7,0.3,,,"COc1cccc2c1nc(N)n1nc([C@@H]3CCCN(c4cnn(C5CCCC5(C)O)c4)C3)nc21 (single isomer, unassigned) [Example 59B]"
281,1.8,,,"COc1cccc2c1nc(N)n1nc([C@@H]3CCCN(c4cnn(C5CCC5O)c4)C3)nc21 (single isomer, unassigned) [Example 60A]"
181,2,,,"COc1cccc2c1nc(N)n1nc([C@@H]3CCCN(c4cnn(C5CCC5O)c4)C3)nc21 (single isomer, unassigned) [Example 60B]"
45.2,0.2,,,"COc1cccc2c1nc(N)n1nc([C@@H]3CCCN(c4cnn(C(C)C(C)(C)O)c4)C3)nc21 (single isomer, unassigned) [Example 61A]"
84,0.4,,,"COc1cccc2c1nc(N)n1nc([C@@H]3CCCN(c4cnn(C(C)C(C)(C)O)c4)C3)nc21 (single isomer, unassigned) [Example 61B]"
168,1.3,,,"COc1cccc2c1nc(N)n1nc([C@@H]3CCC[C@](O)(c4cnn(CC(C)(C)O)c4)C3)nc21 (single isomer, unassigned) [Example 135, (1R, 3R or 1S,3S)-3-(5-amino-7-methoxy-[1,2,4]triazolo[1,5-c]quinazolin-2-yl)-1-(1-(2-hydroxy-2-methylpropyl)-1H-pyrazol-4-yl)cyclohexan-1-ol]"
157,1.2,,,"COc1cccc2c1nc(N)n1nc([C@H]3CCC[C@@H](c4cnn(C)c4)C3)nc21 (single isomer, unassigned) [Example 136C]"
8650,120,,,"COc1cccc2c1nc(N)n1nc([C@@H]3CCC[C@H](c4cnn(CC(C)(C)O)c4)C3)nc21 (single isomer, unassigned) [Example 137, 1-(4-((1S,3R or 1R,3S)-3-(5-amino-7-methoxy-[1,2,4]triazolo[1,5-c]quinazolin-2-yl)cyclohexyl)-1H-pyrazol-1-yl)-2-methylpropan-2-ol]"
425,3.4,,,"COc1cccc2c1nc(N)n1nc(C3CCCC(c4cnn(CC(C)(C)O)c4)C3)nc21 (single isomer, unassigned) [Example 138]"
12,1,,,"COc1cccc2c1nc(N)n1nc(C3CCC(C)N(c4cnn(C5CC5)c4)C3)nc21 (single isomer, unassigned) [Example 141C]"
16.2,0.5,,,"COc1cccc2c1nc(N)n1nc(C3CCC(C)N(c4cnn(CC(C)(C)O)c4)C3)nc21 (single isomer, unassigned) [Example 143D]"
4.6,0.8,,,"COc1cccc2c1nc(N)n1nc(C3CCC(C)N(c4cnn(C(C)(C)CO)c4)C3)nc21 (single isomer, unassigned) [Example 146D]"
779,3.9,,,"COc1cccc2c1nc(N)n1nc([C@@H]3CC[C@H](C)N(c4cnn(C(C)C(C)(C)O)c4)C3)nc21 (single isomer, unassigned) [Example 147C]"
512,0.7,,,"COc1cccc2c1nc(N)n1nc(C3CN(c4cnn(CC5(O)CCC5)c4)CC(F)(F)C3)nc21 (single isomer, unassigned) [Example 157B, (R or S)-1-((4-(5-(5-amino-7-methoxy-[1,2,4]triazolo[1,5-c]quinazolin-2-yl)-3,3-difluoropiperidin-1-yl)-1H-pyrazol-1-yl)methyl)cyclobutan-1-ol]"
526,0.4,,,"COc1cccc2c1nc(N)n1nc(C3CN(c4cn(CC(C)(C)O)nc4C)CC(F)(F)C3)nc21 (single isomer, unassigned) [Example 158B, (R or S)1-(4-(5-(5-amino-7-methoxy-[1,2,4]triazolo[1,5-c]quinazolin-2-yl)-3,3-difluoropiperidin-1-yl)-3-methyl-1H-pyrazol-1-yl)-2-methylpropan-2-ol]"
792,0.1,,,"COc1cccc2c1nc(N)n1nc(C3CN(c4cnn(CC(C)(C)O)c4C)CC(F)(F)C3)nc21 (single isomer, unassigned) [Example 159B, (R or S)-1-(4-(5-(5-amino-7-methoxy-[1,2,4]triazolo[1,5-c]quinazolin-2-yl)-3,3-difluoropiperidin-1-yl)-5-methyl-1H-pyrazol-1-yl)-2-methylpropan-2-ol]"
,,10,19,"Cn1cc(N2CCCC(c3nc4c5cccc(O)c5nc(N)n4n3)C2)cn1 (single isomer, unassigned) [Example 165, (R or S)-5-amino-2-(1-(1-methyl-1H-pyrazol-4-yl)piperidin-3-yl)-[1,2,4]triazolo[1,5-c]quinazolin-7-ol]"
234,18,,,"COc1ccc2c(nc(N)n3nc(C4CCCN(c5cnn(C)c5)C4)nc23)c1F (single isomer, unassigned) [Example 166, (R or S)-7-fluoro-8-methoxy-2-(1-(1-methyl-1H-pyrazol-4-yl)piperidin-3-yl)-[1,2,4]triazolo[1,5-c]quinazolin-5-amine]"
117,14.1,,,"Cc1ccc2c(nc(N)n3nc(C4CCCN(c5cnn(C)c5)C4)nc23)c1C (single isomer, unassigned) [Example 167, (R or S)-7,8-dimethyl-2-(1-(1-methyl-1H-pyrazol-4-yl)piperidin-3-yl)-[1,2,4]triazolo[1,5-c]quinazolin-5-amine]"

Structure (SMILES),IC50 [1] [nM],IC50 [2] [nM],"A2B binding % inh. @ 10000 nM ([1]; @ 10000 nM, unstarred) [% inh. @ 10000 nM]","A2A binding % inh. @ 10000 nM ([2]; @ 10000 nM, unstarred) [% inh. @ 10000 nM]"
COc1cccc2c1nc(N)n1nc(C3CCC[C@@](O)(c4cnn(C)c4)C3)nc21 (mixture of isomers) [Example 134B],76.7,1,,
"COc1cccc2c1nc(N)n1nc(C3CCC[C@](O)(c4cnn(C)c4)C3)nc21 (single isomer, unassigned) [Example 134A]",7750,61.8,,
"CCn1cc(N2C[C@@H](c3nc4c5cccc(OC)c5nc(N)n4n3)CC[C@H]2C)cn1 (single isomer, unassigned) [Example 140A]",5510,66.8,,
